In patent US11319551B2, “Methods and compositions for PPO herbicide tolerance in plants” (Monsanto Technology LLC, priority 2015, dated 2022):

Experiments:
R2N40 = experiment: PPO enzyme assay, bacterial extract
Experimental: (§2) This assay used recombinant HemY PPO proteins with plant plastid extract and PPO substrate to identify protoporphyrinogen oxidases that had activity in the presence of a PPO herbicide.
(§3) Recombinant PPO enzymes were expressed in E. coli HemG knockout cell line and extracted for the enzyme assay. Bacterial cells from an overnight culture were used to inoculate 20 ml of fresh media. These cultures were allowed to grow for approximately 48 hrs at 20° C. to a dense culture. Bacterial cells were collected by centrifugation and the cell pellets stored at −80° C. until enzyme assays were performed. Frozen bacterial pellets were resuspended in extraction buffer (50 mM Tris-HCl, pH 7.6, 1 mM EDTA & 1 mM MgCl2) and sonicated (Sonics VibraCell™) for 30 seconds in an ice bath with a one-minute rest period between cycles. For E. coli transformed with a construct encoding E. coli HemG (SEQ ID NO: 76) the broken cells were centrifuged at 200 g for 2 minutes at 4° C. and the supernatant solution was used for PPO enzyme assays after dilution with extraction buffer. […]
(§4) A PPO enzyme assay was conducted to measure PPO activity using the plant plastid extract and bacterial extract preparations with the PPO substrate. PPO activity was measured generally as described by Grossmann (2010).

E. coli HemG = E. coli HemG (Escherichia coli, UniProt P0ACB4); experiment: PPO enzyme assay, bacterial extract
Experimental: as §2, §3, §4

R2N30 = experiment: PPO enzyme assay, bacterial extract
Experimental: as §2, §3, §4

soybean PPO = experiment: PPO enzyme assay, plant plastid extract; type: biochemical, Glycine max; conditions: 3 μM protogen, 30° C., read-out: S-3100 IC50
Experimental: (§1) Plant plastid extract was produced used etioplasts and chloroplasts that were prepared from etiolated cotyledons (soybean, Glycine max), etiolated leaves/coleoptiles (corn, Zea mays) and unfolded apical leaves (A. tuberculatus) generally by the procedure described by Grossmann (2010). Soybean (A3555) and corn (LH244) seeds were placed between two sheets of moist germination paper (Anchor Paper Company, Saint Paul, Minn.) in a beaker of water in continuous darkness for eight to ten days. A. tuberculatus plants were grown for 30 days in the greenhouse. Tissue was collected, placed between moist sheets of paper towels and ground to fine powder with a mortar and pestle in liquid nitrogen. Homogenization buffer (50 mM Tris-HCl, pH 7.4, 500 mM sucrose, 1 mM EDTA, 1 mM magnesium chloride, and 2 g/liter bovine serum albumin) was added to the frozen powder at 4:1 (ml homogenization buffer to g fresh weight tissue), mixed vigorously and filtered through four layers of pre-moistened Miracloth. The filtrate was centrifuged at 9299 g for five minutes. The pellet was resuspended in homogenization buffer and centrifuged at 150 g for two minutes. The supernatant solution was centrifuged at 4000 g for fifteen minutes. All centrifugation steps were carried out a 4° C. […]

corn PPO = experiment: PPO enzyme assay, plant plastid extract; type: biochemical, Zea mays; conditions: 3 μM protogen, 30° C., read-out: S-3100 IC50
Experimental: as §1

[1] = read-out: S-3100 IC50, bacterial extract, 3 μM protogen, 37° C.

Sequence of E. coli HemG (P0ACB4 whole entry): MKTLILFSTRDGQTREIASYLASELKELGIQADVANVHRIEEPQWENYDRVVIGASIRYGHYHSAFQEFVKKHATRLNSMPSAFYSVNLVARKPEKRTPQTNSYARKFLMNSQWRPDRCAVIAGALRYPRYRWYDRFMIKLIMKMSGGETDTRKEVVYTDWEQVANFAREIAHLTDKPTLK

CCOC(=O)COc1ncccc1Oc1cc(-n2c(=O)cc(C(F)(F)F)n(C)c2=O)c(F)cc1Cl [S-3100]
less sensitive to the herbicide than the plant PPO enzymes (R2N40; R2N40 versus plant PPO enzymes): 10 fold | IC50 (R2N40; [1]): 40 nM | IC50 (E. coli HemG): > 100000 nM | less sensitive to the herbicide than the plant PPO enzymes (R2N30; R2N30 versus plant PPO enzymes): 10 fold | IC50 (R2N30; [1]): 20 nM | IC50 (soybean PPO): 4 nM | IC50 (corn PPO): 3 nM
